Results reported in US20130064812A1, “COMBINATION THERAPIES FOR HEMATOLOGIC MALIGNANCIES” (Gilead Calistoga LLC, priority 2011, published 2013).

Key:
[1] = system: LB cells; experiment: LB cell proliferation with or without BMSCs ([3H]-thymidine uptake); type: cell-based, human; settings: 0.625 μM-10 μM, 48 hours, presence of BMSC
Method: Cell proliferation was assessed using [^3H]-thymidine uptake assay. All data represent mean (±SD) of triplicate experiment.

[2] = system: CD19+ cells from CLL patients; experiment: Surface CD40, CD86, CD20 on CD19+ CLL cells (flow cytometry); type: cell-based, human; settings: 0.5 μM lenalidomide and/or 10 μM compound, 48 hours
Method: Antibodies to CD20, CD40, CD80, CD86 or IgG1 (BD Biosciences, San Jose Calif.) were surface stained.
To extend these findings, inhibition of PI3K-δ prevented lenalidomide was investigated to see whether it induced up-regulation of other co-stimulatory molecules important to B-cell antigen presentation. […] Surface expression of CD40 or CD86 was evaluated by flow cytometry using a CD40- or CD86-PE antibodies and IgG1-PE isotype control.
Internalization of CD20 was evaluated by quantifying surface expression of CD20 by flow cytometry using a CD20-PE antibodies and IgG1-PE isotype control.

[3] = system: CLL cells with purified B-cells; experiment: IgM production by B-cells cultured with treated CLL cells (ELISA); type: cell-based, human; settings: 0.5 μM lenalidomide and/or 10 μM compound, 48 hours, N=6; p<0.0001
Method: Quantization of IgM was determined. Briefly, lenalidomide-treated or vehicle control-treated CLL cells, were irradiated and placed in culture with target, purified B-cells, in the absence or presence of PWM ([…]).
Given the importance of the CD40-CD154 axis for lenalidomide-treated CLL cells to promote normal B-cells to produce immunoglobulin, the compound of formula I was assessed to see whether it could prevent this occurrence. […] CLL cells were irradiated (20 Gy) and placed in culture with purified B-cells, in the absence or presence of 5 μg/mL PWM. Quantification of IgM was determined by ELISA analysis.

[4] = system: DLBCL cell lines; experiment: pAKT in DLBCL cell lines; type: cell-based
[5] = system: CLL cells with StromaNKTert; experiment: Viability / apoptosis of stroma-exposed CLL cells (Annexin V/PI); type: cell-based, human
Method: CLL cells were cultured under standardized conditions on stromal cell lines or primary NLC. Briefly, stromal cells were seeded one day prior to each experiment onto 24-well plates (Corning Life Sciences) at a concentration of 3×10^5 cells/mL/well and incubated at 37° C. in 5% CO2. Stromal cell confluence was confirmed by phase contrast microscopy, and CLL cells were then added onto the stromal cell layer at a concentration of 3×10^6 cells/mL. Cultures were then treated with compounds for the specified time periods. CLL cells were removed for analysis by gentle pipetting with media, and were then washed in PBS prior to analysis. A 24-hour co-culture time point was used unless otherwise indicated.
CLL cell viability was determined by analysis of Annexin V-FITC (BD Biosciences, San Diego, Calif.) and Propidium Iodine (PI) (Sigma) by FACS.
To determine whether PI3K inhibition increased the sensitivity of stroma-exposed CLL cells by increasing priming, PB-derived CLL cells cultured with or without StromaNKTert cells for 24 hours and were examined using Annexin-PI and BH3 profiling. […] Stromal co-culture of four CLL patient samples led to protection from apoptosis in untreated cells.

[6] = system: CLL cells; experiment: BH3 profiling (mitochondrial depolarization) of CLL cells; type: cell-based, human; settings: 24 hours; p=0.075
Method: CLL patient peripheral blood, bone marrow, and lymph node samples were analyzed by either the plate-based fluorimetry or FACS method. Briefly, PBMCs from CLL patients were made into single cell suspensions and gently permeabilized using digitonin (0.002%). For the fluorimtery-based method, 100 μM JC-1 (Invitrogen) was added at this time and cells were then loaded onto a 384-well plate, with individual wells containing individual BH3-only peptides. The JC1-BH3 assays were then conducted in triplicate on a Tecan Safire 2 with […] and Em 590+/−20 nm with a three-hour time course. For the FACS-based method, single cell suspensions from CLL patient PBMCs were stained using human Fc Block (BD Pharmingen) followed by anti-CD19-V450 (BD Pharmingen) and anti-CXCR4-APC (BD Pharmingen). […] JC-1 was measured from the 488-nm laser using a 530/30-nm filter (FITC) and a 585/42-nm filter (PE), and the degree of mitochondrial depolarization was calculated using the surrogate of the change in the median of PE signal. The mitochondrial depolarization reported in response to each BH3 peptide is normalized relative to the median percentage change in PE fluorescence of the JC-1 dye with a negative control, dimethyl sulfoxide (DMSO) (0%) and a positive control, the mitochondrial uncoupling agent carbonyl cyanide 4-(trifluoromethoxy)-phenylhydrazone (FCCP) (100%). […]

[7] = system: LB and INA-6 MM cells with BMSCs; experiment: Paracrine MM cell growth, cytokine secretion and signaling with BMSCs; type: cell-based, human
Method: MM cells (2×10^4 cells/well) were cultured for 48 h in BMSC coated 96-well plates (Costar, Cambridge, Mass.), in the presence or absence of drug. DNA synthesis was measured by [3H]-thymidine (Perkin-Elmer, Boston, Mass.) uptake, with [3H]-thymidine (0.5μ Ci/well) added during the last 8 h of 48 h cultures. All experiments were performed in quadruplicate.
Cytokine secretion by human BMSCs cocultured with MM cells was assessed by ELISA. […] After 48 h, supernatants were harvested and stored at −80° C. Cytokines were measured using Duo set ELISA Development Kits (R&D Systems, Minneapolis, Minn.). All measurements were carried out in triplicate.
The cytokine levels in culture supernatants were assessed using Proteome Profiler Antibody Arrays Panel A (R&D Systems, Minneapolis, Minn.), Supernatants from co-cultures with BMSCs were incubated for 4 hours with membranes arrayed with Abs against 37 cytokines, according to manufacturer's instructions.
DNA synthesis was determined by [3H]-thymidine incorporation. Data represent means (±SD) of triplicate cultures.
Error bars indicate SD (±).
INA-6 cells cultured with or without BMSCs were treated with compound for 48 h. Total cell lysates were subjected to immunoblotting using indicated antibodies, FIG. 34F. Actin was used as a loading control.

Compound: CC[C@H](Nc1ncnc2[nH]cnc12)c1nc2cccc(F)c2c(=O)n1-c1ccccc1 [Compound I, 5-fluoro-3-phenyl-2-[1-(9H-purin-6-ylamino)-propyl]-3H-quinazolin-4-one]
- LB cell growth [1]: LB cell growth is reduced
- internalization of CD20 ([2]; N=5, p=0.0057): prevented this effect
- surface expression of CD40 and CD86 ([2]; N=25, p=0.0102 and <0.0001): prevent the up-regulation of CD40 and CD86 induced by lenalidomide
- production of IgM [3]: completely prevent production of IgM
- pAKT levels in DLBCL cell lines [4]: reduces pAKT levels in several DLBCL cell lines
- apoptosis in stroma-exposed CLL cells ([5]; 10 μM, untreated less than 10%): More than 40%
- apoptosis versus control in the absence of stroma ([5]; four patient samples, 24 hours): induce more apoptosis than the control
- apoptosis versus control in the presence of stroma ([5]; four patient samples, 24 hours): induce significantly more apoptosis than the control
- stroma-mediated resistance (CLL cell viability) ([5]; two patients, 24 hours, ABT-737 100 nM, compound I 10 μM): profound stroma-mediated resistance
- sensitivity of CLL cells to ABT-737 in the presence of stroma ([5]; two resistant CLL patient samples): restored sensitivity of CLL cells to ABT-737 in the presence of stroma
- mitochondrial priming of stroma-exposed CLL cells [6]: increased mitochondrial priming
- MM cell growth and cytokine secretion induced by BMSCs ([7]; 48 h): inhibited growth and cytokine secretion
- phosphorylation of AKT and ERK induced by BMSCs ([7]; INA-6, 48 h): inhibited
